# Biological target: T1, human PDE2A1 (Homo sapiens, UniProt O00408)
# T1 construct: GST; purchased BPS Bioscience (San Diego, Calif.) 60020; host or cells: insect cells
# Assay: IMAP FP PDE assay, human PDE2A1
# Type: biochemical
# Settings: Lab B; read-out: Human PDE2 Ki (nM) Lab B
# Summary of the method: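 GST-tagged human PDE2A1 from insect cells; substrate 50 nM FAM-cAMP containing 1000 nM cGMP in Tris pH 7.2/MgCl2/DTT buffer, enzyme giving 20% conversion. 60 min at room temperature, IMAP binding reagent, fluorescence polarization read. Apparent Ki from FP readings using apparent KM 10,000 nM; ten-point 3-fold titrations.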
# T1 sequence (O00408 1-920 isoform O00408-2): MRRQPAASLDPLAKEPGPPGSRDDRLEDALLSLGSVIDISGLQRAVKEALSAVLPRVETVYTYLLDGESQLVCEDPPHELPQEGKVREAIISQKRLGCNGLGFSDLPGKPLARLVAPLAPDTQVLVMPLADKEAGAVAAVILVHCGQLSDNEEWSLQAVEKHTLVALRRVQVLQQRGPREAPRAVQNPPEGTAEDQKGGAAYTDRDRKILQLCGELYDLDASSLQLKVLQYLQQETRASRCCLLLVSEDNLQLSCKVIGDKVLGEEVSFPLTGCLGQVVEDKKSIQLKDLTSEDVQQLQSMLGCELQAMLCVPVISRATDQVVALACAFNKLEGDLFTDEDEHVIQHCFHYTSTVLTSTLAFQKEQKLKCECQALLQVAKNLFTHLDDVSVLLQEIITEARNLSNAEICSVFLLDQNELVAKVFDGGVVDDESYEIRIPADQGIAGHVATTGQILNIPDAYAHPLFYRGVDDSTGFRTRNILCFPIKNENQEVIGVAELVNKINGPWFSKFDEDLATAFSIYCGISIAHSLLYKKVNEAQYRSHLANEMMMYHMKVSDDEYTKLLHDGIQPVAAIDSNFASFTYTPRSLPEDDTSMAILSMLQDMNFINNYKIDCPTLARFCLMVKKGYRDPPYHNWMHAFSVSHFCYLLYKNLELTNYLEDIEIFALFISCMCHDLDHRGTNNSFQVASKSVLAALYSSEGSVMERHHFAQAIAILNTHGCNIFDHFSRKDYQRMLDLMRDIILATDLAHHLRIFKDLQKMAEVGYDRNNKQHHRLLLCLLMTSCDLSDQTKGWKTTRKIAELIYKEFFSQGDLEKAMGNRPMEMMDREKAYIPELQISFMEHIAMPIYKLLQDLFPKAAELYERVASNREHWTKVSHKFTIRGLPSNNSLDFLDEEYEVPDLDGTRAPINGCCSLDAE
row,Compound,Ki [nM]
1,"COCC(c1ccc(C(F)(F)F)cc1)n1nc(C(F)F)c2c(=O)[nH]c(C)nc21 (single isomer, unassigned) [Example 173, (R)- or (S)-3-(Difluoromethyl)-1-(2-methoxy-1-(4-(trifluoromethyl)phenyl)ethyl)-6-methyl-1H-pyrazolo[3,4-d]pyrimidin-4(5H)-one]",4.6
2,"COCC(c1ccc(C(F)(F)F)cc1)n1nc(C(F)F)c2c(=O)[nH]c(C)nc21 (single isomer, unassigned) [Example 174, (S)- or (R)-3-(Difluoromethyl)-1-(2-methoxy-1-(4-(trifluoromethyl)phenyl)ethyl)-6-methyl-1H-pyrazolo[3,4-d]pyrimidin-4(5H)-one]",278
3,"Cc1nc2c(c(C(F)F)nn2C(C)c2ccc(OC(F)(F)F)cc2)c(=O)[nH]1 (single isomer, unassigned) [Example 177, (R)- or (S)-3-(Difluoromethyl)-6-methyl-1-(1-(4-(trifluoromethoxy)phenyl)ethyl)-1H-pyrazolo[3,4-d]pyrimidin-4(5H)-one]",61
4,"Cc1nc2c(c(C(F)F)nn2C(C)c2ccc(OC(F)(F)F)cc2)c(=O)[nH]1 (single isomer, unassigned) [Example 178, (S)- or (R)-3-(Difluoromethyl)-6-methyl-1-(1-(4-(trifluoromethoxy)phenyl)ethyl)-1H-pyrazolo[3,4-d]pyrimidin-4(5H)-one]",0.72
5,"Cc1nc2c(c(C(F)F)nn2C(C)c2ccc(SC(F)(F)F)cc2)c(=O)[nH]1 (single isomer, unassigned) [Example 179, (R)- or (S)-3-(Difluoromethyl)-6-methyl-1-(1-(4-(trifluoromethylthio)phenyl)ethyl)-1H-pyrazolo[3,4-d] pyrimidin-4(5H)-one]",28
6,"Cc1nc2c(c(C(F)F)nn2C(C)c2ccc(SC(F)(F)F)cc2)c(=O)[nH]1 (single isomer, unassigned) [Example 180, (S)- or (R)-3-(Difluoromethyl)-6-methyl-1-(1-(4-(trifluoromethylthio)phenyl)ethyl)-1H-pyrazolo[3,4-d] pyrimidin-4(5H)-one]",0.55
7,"Cc1nc2c(c(C(F)F)nn2C(C)c2ccc(OC(F)F)cc2)c(=O)[nH]1 (single isomer, unassigned) [Example 181, (R)- or (S)-1-(1-(4-(Difluoromethoxy)phenyl)ethyl)-3-(difluoromethyl)-6-methyl-1H-pyrazolo[3,4-d]pyrimidin-4(5H)-one]",82
8,"Cc1nc2c(c(C(F)F)nn2C(C)c2ccc(C(F)(F)F)cc2Cl)c(=O)[nH]1 (single isomer, unassigned) [Example 183, (R)- or (S)-1-(1-(2-Chloro-4-(trifluoromethyl)phenyl)ethyl)-3-(difluoromethyl)-6-methyl-1H-pyrazolo[3,4-d]pyrimidin-4(5H)-one]",547
9,"Cc1nc2c(c(C(F)F)nn2C(C)c2ccc(C(F)(F)F)cc2Cl)c(=O)[nH]1 (single isomer, unassigned) [Example 184, (S)- or (R)-1-(1-(2-Chloro-4-(trifluoro-methyl)phenyl)-ethyl)-3-(difluoromethyl)-6-methyl-1H-pyrazolo[3,4-d]pyrimidin-4(5H)-one]",1.6
10,"Cc1nc2c(c(C(F)F)nn2C(C)c2ccc(C(F)(F)F)cc2F)c(=O)[nH]1 (single isomer, unassigned) [Example 185, (R)- or (S)-3-(Difluoro-methyl)-1-(1-(2-fluoro-4-(trifluoro-methyl)phenyl)-ethyl)-6-methyl-1H-pyrazolo[3,4-d]pyrimidin-4(5H)-one]",303
11,"Cc1nc2c(c(C(F)F)nn2C(C)c2ccc(C(F)(F)F)cc2F)c(=O)[nH]1 (single isomer, unassigned) [Example 186, (S)- or (R)-3-(Difluoro-methyl)-1-(1-(2-fluoro-4-(trifluoromethyl)phenyl)ethyl)-6-methyl-1H-pyrazolo[3,4-d]pyrimidin-4(5H)-one]",0.63
12,"COCc1nc2c(c(C(F)F)nn2C(C)c2ccc(C(F)(F)F)cc2)c(=O)[nH]1 (single isomer, unassigned) [Example 187, (R)- or (S)-3-(Difluoromethyl)-6-(methoxymethyl)-1-{1-[4-(trifluoromethyl)phenyl]ethyl}-1,5-dihydro-4H-pyrazolo-[3,4-d]pyrimidin-4-one]",231
13,"COCc1nc2c(c(C(F)F)nn2C(C)c2ccc(C(F)(F)F)cc2)c(=O)[nH]1 (single isomer, unassigned) [Example 188, (S)- or (R)-3-(Difluoro-methyl)-6-(methoxymethyl)-1-{1-[4-(trifluoromethyl)phenyl]ethyl}-1,5-dihydro-4H-pyrazolo-[3,4-d]pyrimidin-4-one]",2.6
14,"CCc1nc2c(c(C(F)F)nn2C(C)c2ccc(C(F)(F)F)cc2)c(=O)[nH]1 (single isomer, unassigned) [Example 189, (R)- or (S)-3-(Difluoromethyl)-6-ethyl-1-(1-(4-(trifluoromethyl)phenyl)ethyl)-1,5-dihydro-4H-pyrazolo[3,4-d]pyrimidin-4-one]",330
15,"CCc1nc2c(c(C(F)F)nn2C(C)c2ccc(C(F)(F)F)cc2)c(=O)[nH]1 (single isomer, unassigned) [Example 190, (S)- or (R)-3-(Difluoromethyl)-6-ethyl-1-(1-(4-(trifluoromethyl)-phenyl)ethyl)-1,5-dihydro-4H-pyrazolo[3,4-d]pyrimidin-4-one]",2.7
16,"CC(c1ccc(C(F)(F)F)cc1)n1nc(C(F)F)c2c(=O)[nH]c(C3CC3)nc21 (single isomer, unassigned) [Example 191, (R)- or (S)-6-Cyclopropyl-3-(difluoromethyl)-1-(1-(4-(trifluoromethyl)phenyl)ethyl)-1,5-dihydro-4H-pyrazolo[3,4-d]pyrimidin-4-one]",268
17,"CC(c1ccc(C(F)(F)F)cc1)n1nc(C(F)F)c2c(=O)[nH]c(C3CC3)nc21 (single isomer, unassigned) [Example 192, (S)- or (R)-6-Cyclopropyl-3-(difluoromethyl)-1-(1-(4-(trifluoromethyl)phenyl)ethyl)-1,5-dihydro-4H-pyrazolo[3,4-d]pyrimidin-4-one]",3.4
18,"Cc1nc2c(c(C(F)F)nn2C(C)c2ccc(C(F)(F)F)nc2)c(=O)[nH]1 (single isomer, unassigned) [Example 194]",14
19,"Cc1nc2c(c(C(F)F)nn2C(C)c2ccc(C(F)(F)F)nc2)c(=O)[nH]1 (single isomer, unassigned) [Example 195]",~1670
20,"Cc1nc2c(c(CF)nn2C(C)c2ccc(CC(F)(F)F)cc2)c(=O)[nH]1 (single isomer, unassigned) [Example 210, (R)- or (S)-3-(Fluoromethyl)-6-methyl-1-(1-(4-(2,2,2-trifluoroethyl)phenyl)ethyl)-1H-pyrazolo[3,4-d]pyrimidin-4(5H)-one]",75
21,"Cc1nc2c(c(CF)nn2C(c2ccc(OC(F)(F)F)cc2)C2CC2)c(=O)[nH]1 (single isomer, unassigned) [Example 225, (S)- or (R)-1-(Cyclopropyl(4-(trifluoromethoxy)phenyl)methyl)-3-(fluoromethyl)-6-methyl-1,5-dihydro-4H-pyrazolo[3,4-d]pyrimidin-4-one]",4.6
